Activity calls are given as the source filed them. For most assays here, no stated cut-off is given here; in the data, actives have a measured AC50 and inactives only a lower limit. Where only a bound is given, the exact number is not on record here.

This passage reports AC50 and IC50 results from ChEMBL document CHEMBL1201862, “PubChem BioAssay data set” (2004).

Assay [1] can be described thus: A549 lung cell viability reduction – CellTiter-Glo luminescence, cherry-pick, cytotoxicity control, dose response (AID 743484). The assay is classed as functional, cell-based. (In general: In ATP-based viability assays light output follows the ATP content of the culture.)
Assay [2] deals with Fructose-bisphosphate aldolase (Mycobacterium tuberculosis, UniProt P9WQA3). In words: Fluorescence-based biochemical high throughput dose response assay for inhibitors of the fructose-bisphosphate aldolase (FBA) of M. tuberculosis. The class given is functional.
Chain of Fructose-bisphosphate aldolase (P9WQA3 whole entry): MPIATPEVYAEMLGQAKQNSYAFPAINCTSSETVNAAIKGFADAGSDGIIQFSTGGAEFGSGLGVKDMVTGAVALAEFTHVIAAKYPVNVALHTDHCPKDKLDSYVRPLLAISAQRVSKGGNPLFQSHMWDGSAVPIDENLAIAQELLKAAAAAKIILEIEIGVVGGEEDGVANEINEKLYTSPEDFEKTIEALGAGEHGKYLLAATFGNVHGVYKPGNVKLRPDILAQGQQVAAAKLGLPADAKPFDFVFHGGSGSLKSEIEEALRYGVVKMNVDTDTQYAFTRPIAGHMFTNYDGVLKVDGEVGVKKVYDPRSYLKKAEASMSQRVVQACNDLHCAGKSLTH
The test system of another assay is HEK293. In words: viability loss in HEK293T cells – cell-based, ATP luminescence, cherry-pick samples, cytotoxicity control, dose response (AID 687005).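 Further: cells exposed to compound for 48 hours.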 The assay is classed as functional. As to conditions: Homo sapiens.
Another assay relates to HeLa. In words: viability loss in HeLa cells – cell-based, ATP luminescence, cherry-pick samples, cytotoxicity control, dose response (AID 687004). The assay is classed as functional. The note with it: Homo sapiens.
Assay [3] can be described thus: HEK293 Cytotoxicity Assay Measured in Cell-Based System Using Plate Reader - 7071-01_Inhibitor_Dose_CherryPick_Activity_Set2. The assay is classed as functional.
The test system of the next assay is A549. The assay is described as follows: viability loss in A549 cells – cell-based, plate reader, cherry-pick samples, cytotoxicity control, dose response (AID 687028). The class given is functional. As to conditions: Homo sapiens.
Assay [4] is described as follows: human cervical cancer cell viability loss – 24 h, plate reader, dry powder, cytotoxicity control, dose response (AID 686928). The class given is functional, cell-based. The note with it: HeLa.
Assay [5] is described as follows: YAP1 overexpression rescue of CTGF inhibition – DLD1 cells, RT-qPCR, cherry-pick, mechanism study for YAP1 pathway inhibitor project, dose response (AID 1053127). The class given is functional, cell-based. The note with it: DLD-1. A general note: Real-time PCR tracks product formation cycle by cycle.
Assay [6] can be described thus: viability loss in A549 lung cancer cells – cell-based, cherry-picks, […], cytotoxicity control, dose response (AID 1053119). The class given is functional.
A short description of assay [7]: A549 cell cytotoxicity, dose response, cytotoxicity control, plate reader, cherry-pick, antagonist series (AID 743412). The assay is classed as functional, cell-based.
Assay [8] in a line: viability loss in HEK293 cells – cell-based, plate reader, cherry-picked samples, cytotoxicity control, dose response (AID 743446). The class given is functional.
Assay [9] is described as follows: blockade of melanocortin 4 receptor signaling – cell-based, plate reader, cherry pick, counter-screen for LGR2 antagonist project, dose response (AID 743444).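 Further: transfected HEK 293 cells stimulated with alpha-MSH peptide; potency of inhibitors of the alpha-MSH evoked signal.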 The class given is functional. Background: A counterscreen serves to expose hits that act by an unwanted route or on another target.
Assay [10] is described as follows: viability loss in HEK293 kidney cells – cell-based, cherry-picks, set 5, cytotoxicity control, dose response (AID 1053117). The class given is functional.
Assay [11] is described as follows: blockers of FN fibrillogenesis by fibroblasts – AH1F cells, Alexa488-FN fluorescence, cherry-picks, dose response (AID 1035475). The class given is functional, cell-based.
A short description of assay [12]: viability loss in HepG2 hepatoma cells – cell-based, cherry-picks, set 5, cytotoxicity control, dose response (AID 1053118). The class given is functional.
Assay [13] can be described thus: blockers of bursicon-stimulated LGR2 cAMP reporter – cell-based, HEK293, CRE-luciferase reporter, cherry pick, set 2, dose response (AID 743343).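 Further: transfected cells were stimulated with diluted bursicon conditioned medium after compound addition.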 The assay is classed as functional.

With `CC1(Cc2ccccc2C#N)C(=O)Nc2cc(-c3ccccc3Cl)ccc21` (stereo unspecified), the AC50 in assay [1] is > 52 µM (inactive).
`COc1cccc(/C=C/c2nc(S(=O)(=O)c3ccccc3)c(N3CCC(C(N)=O)CC3)o2)c1`: the IC50 in [2] is 0.676 µM (active).
`C[C@@H]1CN([C@@H](C)CO)S(=O)(=O)c2ccc(C#Cc3ccccn3)cc2O[C@H]1CN(C)Cc1ccccc1`: the AC50 in the assay with HEK293 was 7.04 µM (active); with HeLa, 39.1 µM (active); in assay [3], 7.04 µM (active).
For `C[C@H](CO)N1C[C@H](C)[C@H](CN(C)C(=O)Nc2ccc(C(F)(F)F)cc2)OCCCC[C@H](C)Oc2ccc(NS(=O)(=O)c3ccc(F)cc3)cc2C1=O`, the AC50 with A549 was 33.6 µM (active).
As to `Cc1ccc(-n2cnc(=O)c3ccccc32)cc1Cl`, the AC50 in [4] was > 160 µM (inactive).
As to `COc1ccccc1C(=O)Nc1ccc2c(c1)C(=O)N(C)C[C@H](OC)[C@@H](C)CN(C(C)=O)[C@@H](C)CO2`, in [5], the AC50 was 8.95 µM (active).
For `C[C@@H]1CN([C@@H](C)CO)C(=O)c2cccc(NC(=O)Nc3ccc(C(F)(F)F)cc3)c2O[C@@H]1CN(C)C(=O)Nc1cccc2ccccc12`, the AC50 was 12.8 µM (active) in assay [6]; 27.8 µM (active) in assay [7]; > 52 µM (inactive) in assay [8]; 22.8 µM (active) in assay [9]; 12.7 µM (active) in assay [10]; 12.9 µM (active) in assay [11]. For the same compound, the AC50 in [12] is 10.2 µM (active); in assay [13], 25 µM (active).

Broadly, the AC50 is the concentration giving half of the maximal activity seen. Broadly, the IC50 is the concentration at which inhibition is half-maximal.
